In brackets after ≈: the same amount, converted by molar mass. Activity calls are given as the source filed them. The calls are words filed in the database; no cut-off is given here.
How the values were obtained:
[1] = Kinetic solubility of the compound in DPBS buffer at pH 7.4 incubated for 16 hrs under shaking condition by HPLC analysis; type: physicochemical; details: read-out: Kinetic_solubility
HT-1080 = test: cells; details: Homo sapiens, HT-1080, 72 h
RD = test: cells; details: Homo sapiens, 72 h
MCF7 = test: cells; details: Homo sapiens, MCF7, 72 h
GCT = test: cells; details: Homo sapiens, 72 h
[2] = Metabolic stability in CD-1 mouse liver microsomes assessed as half life at 100 uM measured upto 60 mins in presence of NADPH by LC-MS/MS analysis; type: ADME, Microsome; details: for t1/2: mouse, microsomes, 1 h, 100 µM
[3] = Metabolic stability in CD-1 mouse liver microsomes assessed as intrinsic clearance at 100 uM measured upto 60 mins in presence of NADPH by LC-MS/MS analysis; type: ADME, Microsome; details: for microsomal intrinsic clearance: mouse, microsomes, 1 h, 100 µM
[4] = Metabolic stability in CD-1 mouse liver microsomes assessed as parent compound remaining at 100 uM measured after 60 mins in presence of NADPH by LC-MS/MS analysis; type: ADME, Microsome; details: read-out: Stability
[5] = AUC (0 to last) in mouse at 10 mg/kg, po by LC-MS/MS analysis; type: ADME, organism-based; set-up: dose 10 mg/kg, route po; details: in vivo
[6] = AUC (0 to last) in mouse at 1 mg/kg, ip by LC-MS/MS analysis; type: ADME, organism-based; set-up: dose 1 mg/kg, route ip; details: in vivo
[7] = AUC (0 to infinity) in mouse at 10 mg/kg, po by LC-MS/MS analysis; type: ADME, organism-based; set-up: dose 10 mg/kg, route po; details: in vivo
[8] = AUC (0 to infinity) in mouse at 1 mg/kg, ip by LC-MS/MS analysis; type: ADME, organism-based; set-up: dose 1 mg/kg, route ip; details: in vivo
[9] = Half life in mouse at 10 mg/kg, po by LC-MS/MS analysis; type: ADME, organism-based; details: in vivo
[10] = Half life in mouse at 1 mg/kg, ip by LC-MS/MS analysis; type: ADME, organism-based; details: in vivo
[11] = Tmax in mouse at 10 mg/kg, po by LC-MS/MS analysis; type: ADME, organism-based; details: in vivo
[12] = Tmax in mouse at 1 mg/kg, ip by LC-MS/MS analysis; type: ADME, organism-based; details: in vivo
[13] = Tlast in mouse at 10 mg/kg, po by LC-MS/MS analysis; type: ADME, organism-based; details: in vivo
[14] = Tlast in mouse at 1 mg/kg, ip by LC-MS/MS analysis; type: ADME, organism-based; details: in vivo
[15] = Cmax in mouse at 1 mg/kg, ip by LC-MS/MS analysis; type: ADME, organism-based; set-up: dose 1 mg/kg, route ip; details: in vivo
[16] = Cmax in mouse at 10 mg/kg, po by LC-MS/MS analysis; type: ADME, organism-based; set-up: dose 10 mg/kg, route po; details: in vivo
Vimentin (Homo sapiens) [17] = biological target: Vimentin (Homo sapiens) (UniProt P08670); test: Induction of Vimentin phosphorylation in human HT-1080 cells at 100 nM incubated for 24 hrs by Western blot analysis; type: cell-based; details: filed as activator
Vimentin (Homo sapiens) [18] = biological target: Vimentin (Homo sapiens) (UniProt P08670); test: Induction of Vimentin phosphorylation in human RD cells at 100 nM incubated for 24 hrs by Western blot analysis; type: cell-based; details: filed as activator
Vimentin (Homo sapiens) [19] = biological target: Vimentin (Homo sapiens) (UniProt P08670); test: Induction of Vimentin phosphorylation in human GCT cells at 100 nM incubated for 24 hrs by Western blot analysis; type: cell-based; details: filed as activator
[20] = Oral bioavailability in mouse at 10 mg/kg by LC-MS/MS analysis; type: ADME, organism-based; details: in vivo
Vimentin (Homo sapiens) [21] = biological target: Vimentin (Homo sapiens) (UniProt P08670); test: Induction of Vimentin phosphorylation in human HT-1080 cells at 1 uM incubated for 24 hrs by Western blot analysis; type: cell-based
Vimentin (Homo sapiens) [22] = biological target: Vimentin (Homo sapiens) (UniProt P08670); test: Induction of Vimentin phosphorylation in human RD cells at 1 uM incubated for 24 hrs by Western blot analysis; type: cell-based
Vimentin (Homo sapiens) [23] = biological target: Vimentin (Homo sapiens) (UniProt P08670); test: Induction of Vimentin phosphorylation in human GCT cells at 1 uM incubated for 24 hrs by Western blot analysis; type: cell-based

Sequence of Vimentin (Homo sapiens) (P08670 whole entry): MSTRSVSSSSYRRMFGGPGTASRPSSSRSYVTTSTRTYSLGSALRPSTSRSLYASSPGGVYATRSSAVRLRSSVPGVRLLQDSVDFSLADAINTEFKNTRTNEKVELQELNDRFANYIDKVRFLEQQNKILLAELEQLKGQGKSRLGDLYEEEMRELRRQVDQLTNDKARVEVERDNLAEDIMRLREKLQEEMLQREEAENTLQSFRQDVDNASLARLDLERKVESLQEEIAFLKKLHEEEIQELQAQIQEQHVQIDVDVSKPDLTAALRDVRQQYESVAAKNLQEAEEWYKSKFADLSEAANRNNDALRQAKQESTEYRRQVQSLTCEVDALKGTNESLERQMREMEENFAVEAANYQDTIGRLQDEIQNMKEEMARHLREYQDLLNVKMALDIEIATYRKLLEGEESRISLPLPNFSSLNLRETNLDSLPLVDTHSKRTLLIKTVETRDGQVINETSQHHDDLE

Row | IC50 (HT-1080) | IC50 (RD) | IC50 (MCF7) | IC50 (GCT) | Structure (SMILES) | further results
1 | 2.72 µM | 3.69 µM | 4.56 µM | – | CN(C)CCCOc1cc(Cl)cc(N2CCN(c3cnnc4c(Cl)cccc34)CC2)c1 | solubility kinetic at 16 h [1]: 48 µM (≈ 22.1 µg/mL)
2 | > 20 µM | > 20 µM | > 20 µM | > 20 µM | Clc1cccc(N2CCN(c3ncnc4ccccc34)CC2)c1 | –
3 | > 20 µM | > 20 µM | > 20 µM | > 20 µM | Clc1cccc(C2CCN(c3cnnc4c(Cl)cccc34)CC2)c1 | –
4 | 0.647 µM | 1.32 µM | > 20 µM | 0.498 µM | Nc1cc(Cl)cc(N2CCN(c3cnnc4c(Cl)cccc34)CC2)c1 | –
5 | > 20 µM | > 20 µM | > 20 µM | > 20 µM | Clc1cc(OCCN2CCOCC2)cc(N2CCN(c3cnnc4c(Cl)cccc34)CC2)c1 | solubility kinetic at 16 h [1]: < 1 µM
6 | 3.89 µM | 4.58 µM | > 20 µM | 3.55 µM | NCCOc1cc(Cl)cc(N2CCN(c3cnnc4c(Cl)cccc34)CC2)c1 | solubility kinetic at 16 h [1]: 38 µM (≈ 15.9 µg/mL); t1/2 [2]: > 145 min; microsomal intrinsic clearance [3]: < 9.6 µL/min/mg; remaining at 1 h, 100 µM [4]: 78.7%
7 | 0.5 µM | 0.407 µM | > 20 µM | 0.667 µM | OCCOc1cc(Cl)cc(N2CCN(c3cnnc4c(Cl)cccc34)CC2)c1 | solubility kinetic at 16 h [1]: 13 µM (≈ 5.45 µg/mL); t1/2 [2]: 19.1 min; microsomal intrinsic clearance [3]: 72.5 µL/min/mg; remaining at 1 h, 100 µM [4]: 10.5%
8 | – | – | – | – | OC(O)COc1cc(Cl)cc(N2CCN(c3cnnc4c(Cl)cccc34)CC2)c1 | half-life at 100 µM ([2]; CD-1, mouse, liver microsomes): 42.7 min; microsomal CLint at 100 µM ([3]; CD-1, mouse, liver microsomes, read-out: CLH): 32.5 µL/min/mg; remaining at 1 h, 100 µM [4]: 35.7%
9 | > 20 µM | > 20 µM | > 20 µM | > 20 µM | COc1ccc2c(N3CCN(c4cccc(Cl)c4)CC3)cnnc2c1Cl | –
10 | > 20 µM | > 20 µM | > 20 µM | > 20 µM | Clc1cccc(N2CCN(c3ccnnc3)CC2)c1 | –
11 | – | – | – | – | Fc1c(Cl)cc(N2CCN(c3cnnc4c(Cl)cccc34)CC2)cc1Cl | t1/2 [2]: 32.5 min; microsomal intrinsic clearance [3]: 42.6 µL/min/mg; remaining at 1 h, 100 µM [4]: 29.6%
12 | 0.044 µM | 0.061 µM | 11.2 µM | 0.049 µM | COc1cc(Cl)cc(N2CCN(c3cnnc4c(Cl)cccc34)CC2)c1 | AUC(0-t) [5]: 371 ng·h/mL; AUC(0-t) [6]: 208 ng·h/mL; AUC(0-inf) [7]: 534 ng·h/mL; AUC(0-inf) [8]: 211 ng·h/mL; half-life [9]: 281 min; half-life [10]: 35.4 min; Tmax [11]: 40.2 min; Tmax [12]: 15 min; Tlast [13]: 8 h; Tlast [14]: 18 h; Cmax [15]: 197 ng/mL; Cmax [16]: 155 ng/mL; Activity (Vimentin (Homo sapiens) [17]): Active; Activity (Vimentin (Homo sapiens) [18]): Active; Activity (Vimentin (Homo sapiens) [19]): Active; F [20]: 25%; t1/2 [2]: 1.7 min; microsomal intrinsic clearance [3]: 805.3 µL/min/mg; remaining at 1 h, 100 µM [4]: 0%
13 | > 20 µM | > 20 µM | > 20 µM | > 20 µM | Clc1cccc(N2CCCN(c3cnnc4c(Cl)cccc34)CC2)c1 | –
14 | 1.7 µM | 1.35 µM | > 20 µM | 1.06 µM | COCCOc1cc(Cl)cc(N2CCN(c3cnnc4c(Cl)cccc34)CC2)c1 | solubility kinetic at 16 h [1]: < 1 µM
15 | 0.086 µM | 0.083 µM | 12.1 µM | 0.057 µM | Oc1cc(Cl)cc(N2CCN(c3cnnc4c(Cl)cccc34)CC2)c1 | –
16 | > 20 µM | > 20 µM | > 20 µM | > 20 µM | COc1cccc2c(N3CCN(c4cccc(Cl)c4)CC3)cnnc12 | –
17 | – | – | – | – | Fc1ccc(N2CCN(c3cnnc4c(Cl)cccc34)CC2)cc1Cl | t1/2 [2]: 6.7 min; microsomal intrinsic clearance [3]: 205.8 µL/min/mg; remaining at 1 h, 100 µM [4]: 0.4%
18 | 0.979 µM | 1.12 µM | > 20 µM | 1 µM | COC(=O)CCOc1cc(Cl)cc(N2CCN(c3cnnc4c(Cl)cccc34)CC2)c1 | solubility kinetic at 16 h [1]: 82 µM (≈ 37.8 µg/mL); t1/2 [2]: 35.5 min; microsomal intrinsic clearance [3]: 39 µL/min/mg; remaining at 1 h, 100 µM [4]: 28.9%
19 | > 20 µM | > 20 µM | > 20 µM | > 20 µM | Clc1cccc(N2CCN(c3cc(-c4ccccc4)ncn3)CC2)c1 | –

Row | IC50 (HT-1080) | IC50 (RD) | IC50 (MCF7) | IC50 (GCT) | Structure (SMILES) | further results
20 | 0.412 µM | 0.623 µM | > 20 µM | 0.315 µM | Clc1cc(Cl)cc(N2CCN(c3cnnc4c(Cl)cccc34)CC2)c1 | –
21 | > 20 µM | > 20 µM | > 20 µM | > 20 µM | Clc1cc(N2CCCC2)cc(N2CCN(c3cnnc4c(Cl)cccc34)CC2)c1 | –
22 | 0.037 µM | 0.033 µM | 15.5 µM | 0.033 µM | COc1cc(OC)cc(N2CCN(c3cnnc4c(Cl)cccc34)CC2)c1 | t1/2 [2]: 2.1 min; microsomal intrinsic clearance [3]: 657.4 µL/min/mg; remaining at 1 h, 100 µM [4]: 0.1%
23 | 10.8 µM | 7.41 µM | > 20 µM | 10.8 µM | CC(=O)Nc1cc(Cl)cc(N2CCN(c3cnnc4c(Cl)cccc34)CC2)c1 | –
24 | 0.378 µM | 0.402 µM | > 20 µM | 0.189 µM | N#Cc1cc(Cl)cc(N2CCN(c3cnnc4c(Cl)cccc34)CC2)c1 | –
25 | > 20 µM | > 20 µM | > 20 µM | > 20 µM | Clc1cc(OCCOC2CCCCO2)cc(N2CCN(c3cnnc4c(Cl)cccc34)CC2)c1 (configuration not stated) | solubility kinetic at 16 h [1]: < 1 µM
26 | 0.598 µM | 0.884 µM | > 20 µM | 0.402 µM | COc1cccc(N2CCN(c3cnnc4c(Cl)cccc34)CC2)c1 | –
27 | 0.956 µM | 1.28 µM | > 20 µM | 0.656 µM | Oc1cc(O)cc(N2CCN(c3cnnc4c(Cl)cccc34)CC2)c1 | –
28 | 1.15 µM | 1.07 µM | > 20 µM | 1.27 µM | C[C@H]1CN(c2cnnc3c(Cl)cccc23)CCN1c1cc(Cl)cc(Cl)c1 | –
29 | > 20 µM | > 20 µM | > 20 µM | > 20 µM | Clc1cccc(N2C[C@@H]3CN(c4cnnc5c(Cl)cccc45)C[C@@H]3C2)c1 | –
30 | > 20 µM | > 20 µM | > 20 µM | > 20 µM | Clc1cccc(N2CCN(c3ccnc4c(Cl)cccc34)CC2)c1 | Activity (Vimentin (Homo sapiens) [21]): inactive; Activity (Vimentin (Homo sapiens) [22]): inactive; Activity (Vimentin (Homo sapiens) [23]): inactive
31 | – | 19.1 µM | > 20 µM | 2.93 µM | COC(COc1cc(Cl)cc(N2CCN(c3cnnc4c(Cl)cccc34)CC2)c1)OC | solubility kinetic at 16 h [1]: < 1 µM
32 | 1.53 µM | 1.12 µM | > 20 µM | 0.756 µM | O=C(O)CCOc1cc(Cl)cc(N2CCN(c3cnnc4c(Cl)cccc34)CC2)c1 | solubility kinetic at 16 h [1]: > 200 µM
33 | > 20 µM | > 20 µM | > 20 µM | > 20 µM | Clc1cccc(N2CCN(c3cnnc4ccccc34)CC2)c1 | –
34 | > 20 µM | > 20 µM | > 20 µM | > 20 µM | Clc1cccc(N2CCN(c3ccnc4ccccc34)CC2)c1 | –
35 | 3.23 µM | 5.6 µM | > 20 µM | 8.86 µM | Clc1cccc(N2CC3CC2CN3c2cnnc3c(Cl)cccc23)c1 (configuration not stated) | –
36 | 4.72 µM | 7.02 µM | 16 µM | 6.49 µM | CN(C)CCOc1cc(Cl)cc(N2CCN(c3cnnc4c(Cl)cccc34)CC2)c1 | solubility kinetic at 16 h [1]: 131 µM (≈ 58.5 µg/mL)
37 | 5.57 µM | 6.15 µM | > 20 µM | 4.03 µM | Clc1cccc(N2C[C@H]3CC[C@@H](C2)N3c2cnnc3c(Cl)cccc23)c1 | –
